Consider 42 compounds from patent US8865705B2, “Benzimidazole respiratory syncytial virus inhibitors” (Janssen R&D Ireland, priority 2010, dated 2014).

Like-named read-outs stand apart in the source and are kept apart here.

Data set [1] has as its system rgRSV224 virus. The experiment in a line: microbe, parasite or virus in culture. Type of data set: cell-based, respiratory syncytial virus (RSV). The note with it: for EC50: read-out: WT activity EC50; for SI CC50/EC50: selectivity index, CC50 (HeLa cytotoxicity) over EC50 (rgRSV224). The protocol:
Black 96-well clear-bottom microtiter plates (Corning, Amsterdam, The Netherlands) were filled in duplicate using a customized robot system with serial 4-fold dilutions of compound in a final volume of 50 μl culture medium [RPMI medium without phenol red, 10% FBS, 0.04% gentamycin (50 mg/mL) and 0.5% DMSO]. Then, 100 μl of a HeLa cell suspension (5×10^4 cells/mL) in culture medium was added to each well followed by the addition of 50 μl rgRSV224 (MOI=0.02) virus in culture medium using a multidrop dispenser (Thermo Scientific, Erembodegem, Belgium). rgRSV224 virus is an engineered virus that includes an additional GFP gene (Hallak et al, 2000) and was in-licensed from the NIH (Bethesda, Md., USA). Medium, virus- and mock-infected controls were included in each test. Cells were incubated at 37° C. in a 5% CO2 atmosphere. Three days post-virus exposure, viral replication was quantified by measuring GFP expression in the cells by a MSM laser microscope (Tibotec, Beerse, Belgium). […] In parallel, compounds were incubated for three days in a set of white 96-well microtitier plates (Corning) and the cytotoxicity of compounds in HeLa cells was determined by measuring the ATP content of the cells using the ATPlite kit (PerkinElmer, Zaventem, Belgium) according to the manufacturer's instructions.

Data set [2] relates to HeLa cells. The experiment in a line: Cytotoxicity in HeLa cells by ATP content (ATPlite kit). Type of data set: cell-based. The protocol: Black 96-well clear-bottom microtiter plates (Corning, Amsterdam, The Netherlands) were filled in duplicate using a customized robot system with serial 4-fold dilutions of compound in a final volume of 50 μl culture medium [RPMI medium without phenol red, 10% FBS, 0.04% gentamycin (50 mg/mL) and 0.5% DMSO]. Then, 100 μl of a HeLa cell suspension (5×10^4 cells/mL) in culture medium was added to each well followed by the addition of 50 μl rgRSV224 (MOI=0.02) virus in culture medium using a multidrop dispenser (Thermo Scientific, Erembodegem, Belgium). rgRSV224 virus is an engineered virus that includes an additional GFP gene (Hallak et al, 2000) and was in-licensed from the NIH (Bethesda, Md., USA). Medium, virus- and mock-infected controls were included in each test. Cells were incubated at 37° C. in a 5% CO2 atmosphere. Three days post-virus exposure, viral replication was quantified by measuring GFP expression in the cells by a MSM laser microscope (Tibotec, Beerse, Belgium). The EC50 was defined as the 50% inhibitory concentration for GFP expression. In parallel, compounds were incubated for three days in a set of white 96-well microtitier plates (Corning) and the cytotoxicity of compounds in HeLa cells was determined by measuring the ATP content of the cells using the ATPlite kit (PerkinElmer, Zaventem, Belgium) according to the manufacturer's instructions. The CC50 was defined as the 50% concentration for cytotoxicity.
A general note: Cellular ATP, detected with luciferase, serves as a proxy for viable cell number.

Setting [3] is: Table 1, rgRSV224 in HeLa cells, GFP expression three days post-virus exposure.
The mark [4] stands for this setting: Table 1, HeLa cells, three days, ATP content, read-out: Tox CC50.
Setting [5] is: human respiratory syncytial virus, HeLa, 72 h.
Setting [6] is: Table 2, rgRSV224 in HeLa cells, GFP expression three days post-virus exposure.

As usually defined, the EC50 is the concentration needed to bring the measured effect to its halfway point. In general, CC50 refers to the concentration giving 50% cytotoxicity. `O=c1n(Cc2nc3cc(Br)ccc3n2CCCCF)c2cnccc2n1C1CC1` [P1]: the EC50 in data set [1] (setting [3]) came to 0.033 nM. Also, the CC50 in data set [2] (setting [4]) was > 9840 nM. Turning to `CS(=O)(=O)CCCn1c(Cn2c(=O)n(C3CC3)c3ccc(F)cc32)nc2cc(Br)ccc21` [P3], the EC50 in data set [1] (setting [3]) amounted to 0.47 nM. The CC50 in data set [2] is > 9840 nM. In the same order, the values of `CS(=O)(=O)NCCCCn1c(Cn2c(=O)n(C3CC3)c3ccncc32)nc2cc(Br)ccc21` [P5] are < 0.15 nM and > 101000 nM.

For the compound `CS(=O)(=O)CCCn1c(Cn2c(=O)n(C3CC3)c3ccncc32)nc2cc(Cl)ccc21` [P6], the EC50 in data set [1] (setting [3]) is < 0.15 nM. The CC50 in data set [2] was > 9840 nM. For the compound `CS(=O)(=O)CCCn1c(Cn2c(=O)n(C3CC3)c3ccccc32)nc2cc(Br)ccc21` [P7], in data set [1] (setting [3]), the EC50 is < 0.15 nM. For the same compound, in data set [2], the CC50 is > 9840 nM. Take `O=c1n(Cc2nc3cc(Br)ccc3n2CCCCCl)c2cnccc2n1C1CC1` [P8]: the concentration giving a half-maximal response (EC50) in data set [1] (setting [3]) was < 0.205 nM. Further, the 50% cytotoxic concentration (CC50) in data set [2] (setting [4]) is > 9840 nM. As for `CS(=O)(=O)NCCCn1c(Cn2c(=O)n(C3CC3)c3ccncc32)nc2cc(Br)ccc21` [P9], the EC50 in data set [1] (setting [3]) was found to be 0.21 nM. Also, in data set [2], the CC50 was > 101000 nM. In the same order, the values of `CS(=O)(=O)CCCn1c(Cn2c(=O)n(C3CC3)c3ccc(F)cc32)nc2cc(Cl)ccc21` [P10] are 0.23 nM and > 9840 nM. As to `O=c1n(Cc2nc3cc(Cl)ccc3n2CCCCO)c2cc(F)ccc2n1C1CC1` [P11], the EC50 in data set [1] (setting [3]) was 0.253 nM. In data set [2], the CC50 is > 9840 nM. In the same order, the values of `O=c1n(Cc2nc3cc(Cl)ccc3n2CCCCO)c2ccccc2n1C1CC1` [P12] are 0.307 nM and > 9840 nM.

For the compound `O=c1n(Cc2nc3cc(Cl)ccc3n2CCCCO)c2cnccc2n1C1CC1` [P13], the EC50 in data set [1] (setting [3]) came out at 0.454 nM. The cytotoxic concentration (CC50) in data set [2] was > 9840 nM. The like results for `O=c1n(Cc2nc3cc(Br)ccc3n2CCCCO)c2cnccc2n1C1CC1` [P14] were, in that order, 0.523 nM and > 98400 nM. The like results for `CC(C)CCn1c(Cn2c(=O)n(C3CC3)c3ccncc32)nc2cc(Cl)ccc21` [P15] were, in that order, < 0.62 nM and > 98400 nM. With `O=c1n(Cc2nc3cc(Br)ccc3n2CCCCO)c2cc(F)ccc2n1C1CC1` [P16], in data set [1] (setting [3]), the EC50 turned out to be 0.744 nM. The half-maximal cytotoxic concentration (CC50) in data set [2] is > 9840 nM. In the same order, the values of `CC(C)CCn1c(Cn2c(=O)n(C3CC3)c3ccncc32)nc2cc(Br)ccc21` [P17] are 0.808 nM and > 49200 nM. Regarding `CC(=O)OCCCCn1c(Cn2c(=O)n(C3CC3)c3ccncc32)nc2cc(Br)ccc21` [P18], in data set [1] (setting [3]), the concentration for a half-maximal effect (EC50) amounted to 1.07 nM. For the same compound, the CC50 in data set [2] (setting [4]) is > 101000 nM. With `CC(C)(C)C(=O)OCCCCn1c(Cn2c(=O)n(C3CC3)c3ccccc32)nc2cc(Cl)ccc21` [P19], the EC50 in data set [1] (setting [3]) is 2.59 nM. Besides, in data set [2], the CC50 was > 9840 nM. The like results for `CC(C)(C)C(=O)OCCCCn1c(Cn2c(=O)n(C3CC3)c3ccc(F)cc32)nc2cc(Cl)ccc21` [P20] were, in that order, 4.09 nM and > 9840 nM.

For `CN(C)CCCn1c(Cn2c(=O)n(C3CC3)c3ccncc32)nc2cc(Br)ccc21` [P21], the EC50 in data set [1] (setting [3]) is 4.12 nM. Also, the CC50 in data set [2] is > 98400 nM. With `CC(=O)OCCCCn1c(Cn2c(=O)n(C3CC3)c3ccc(F)cc32)nc2cc(Br)ccc21` [P22], the EC50 in data set [1] (setting [3]) is < 0.81 nM. Also, the CC50 in data set [2] (setting [4]) was > 9840 nM. In the case of `O=c1n(Cc2nc3cc(Cl)ccc3n2CCCn2ccnc2)c2cnccc2n1C1CC1` [P51, 3-({5-chloro-1-[3-(1H-imidazol-1-yl)propyl]-1H-benzimidazol-2-yl}methyl)-1-cyclopropyl-1,3-dihydro-2H-imidazo[4,5-c]pyridin-2-one], the “SI CC50/EC50” value in data set [1] (Table 2) is >401504. Also, the EC50 in data set [1] (setting [5]) came out at 0.25 nM. Take `CC(C)(C)OC(=O)CCCn1c(Cn2c(=O)n(C3CC3)c3ccncc32)nc2cc(Cl)ccc21` [P52]: the EC50 in data set [1] (setting [6]) was determined as 0.55 nM. For the same compound, the “SI CC50/EC50” value in data set [1] (Table 2) amounted to 70937. The like results for `O=c1n(Cc2nc3cc(Cl)ccc3n2CCCC(F)(F)F)c2cc(F)ccc2n1C1CC1` [P58] were, in that order, 0.49 nM and 104559. As for `CN(C(=O)CCCn1c(Cn2c(=O)n(C3CC3)c3ccncc32)nc2cc(Cl)ccc21)S(=O)(=O)C1CC1` [P59, 4-(5-chloro-2-((1-cyclopropyl-2-oxo-1H-imidazo[4,5-c]pyridin-3(2H)-yl)methyl)-1H-benzo[d]imidazol-1-yl)-N-(cyclopropylsulfonyl)-N-methylbutanamide], the “SI CC50/EC50” value in data set [1] (Table 2) was >604770. In addition, the EC50 in data set [1] (setting [5]) came out at 0.17 nM. For `CC(C)(C)OC(=O)Cn1c(=O)n(Cc2nc3cc(Cl)ccc3n2CCCC(F)(F)F)c2cnccc21` [P60], in data set [1] (setting [6]), the EC50 worked out at 1.68 nM. Besides, the “SI CC50/EC50” value in data set [1] (Table 2) is given as >59486. The like results for `O=C(CCn1c(Cn2c(=O)n(C3CC3)c3ccc(F)cc32)nc2cc(Cl)ccc21)N1CCOCC1` [P62] were, in that order, 1.36 nM and >73334. The like results for `O=C(CCCn1c(Cn2c(=O)n(C3CC3)c3ccncc32)nc2cc(Cl)ccc21)N1CCOCC1` [P63] were, in that order, 1 nM and >98994.

Turning to `O=C(CCn1c(Cn2c(=O)n(C3CC3)c3ccncc32)nc2cc(Cl)ccc21)N1CCOCC1` [P64], the EC50 in data set [1] (setting [6]) was determined as 1.45 nM. Moreover, the “SI CC50/EC50” value in data set [1] (Table 2) is >68795. In the same order, the values of `N#CCCCn1c(Cn2c(=O)n(C3CC3)c3ccccc32)nc2cc(Cl)ccc21` [P70] are 0.631 nM and >159787. In the same order, the values of `CN(C)C(=O)Cn1c(=O)n(Cc2nc3cc(Cl)ccc3n2CCCCF)c2cnccc21` [P71] are 2.5 nM and >39781. Consider `N#CCCCn1c(Cn2c(=O)n(C3CC3)c3ccc(F)cc32)nc2cc(Cl)ccc21` [P73], for which the EC50 in data set [1] (setting [6]) was 1.58 nM. For the same compound, in data set [1] (Table 2), the “SI CC50/EC50” value is 23633. The like results for `O=C(CCCn1c(Cn2c(=O)n(C3CC3)c3ccncc32)nc2cc(Br)ccc21)N1CCCCS1(=O)=O` [P74] were, in that order, 1.18 nM and >84529. The like results for `O=C(CCCn1c(Cn2c(=O)n(C3CC3)c3ccncc32)nc2cc(Br)ccc21)N1CCCS1(=O)=O` [P75] were, in that order, 0.2 nM and >444590. Turning to `NS(=O)(=O)NC(=O)CCCn1c(Cn2c(=O)n(C3CC3)c3ccncc32)nc2cc(Br)ccc21` [P76, 4-(5-bromo-2-((1-cyclopropyl-2-oxo-1H-imidazo[4,5-c]pyridin-3(2H)-yl)methyl)-1H-benzo[d]imidazol-1-yl)-N-sulfamoylbutanamide], in data set [1] (Table 2), the “SI CC50/EC50” value is given as >214887. The half-maximal effective concentration (EC50) in data set [1] (setting [5]) worked out at 0.47 nM. For `CCCS(=O)(=O)NC(=O)CCCn1c(Cn2c(=O)n(C3CC3)c3ccncc32)nc2cc(Br)ccc21` [P78], the 50% effective concentration (EC50) in data set [1] (setting [6]) came out at 1.73 nM. Moreover, the “SI CC50/EC50” value in data set [1] (Table 2) is listed as >57893. The like results for `CN(C(=O)CCCn1c(Cn2c(=O)n(C3CC3)c3ccncc32)nc2cc(Br)ccc21)S(C)(=O)=O` [P79] were, in that order, 0.56 nM and >177178. The like results for `CS(=O)(=O)NC(=O)CCCn1c(Cn2c(=O)n(C3CC3)c3ccncc32)nc2cc(Br)ccc21` [P80] were, in that order, 1 nM and >99444.

In the case of `CCCCS(=O)(=O)NC(=O)CCCn1c(Cn2c(=O)n(C3CC3)c3ccncc32)nc2cc(Br)ccc21` [P81], the concentration for a half-maximal effect (EC50) in data set [1] (setting [6]) was determined as 7.25 nM. Moreover, the “SI CC50/EC50” value in data set [1] (Table 2) was >13798.

Turning to `NC(=O)CCCn1c(Cn2c(=O)n(C3CC3)c3ccncc32)nc2cc(Br)ccc21` [P82], the EC50 in data set [1] (setting [6]) stood at 0.58 nM. Besides, in data set [1] (Table 2), the “SI CC50/EC50” value is >85761. In the same order, the values of `CNC(=O)CCCn1c(Cn2c(=O)n(C3CC3)c3ccncc32)nc2cc(Br)ccc21` [P83] are 0.9 nM and >111709.

On to `CS(=O)(=O)CCCn1c(Cn2c(=O)n(C3CC3)c3ccncc32)nc2ccccc21` [Ref1, reference compound], for which the EC50 in data set [1] (setting [6]) was found to be 2.5 nM. The “SI CC50/EC50” value in data set [1] (Table 2) is reported as >4315. As for `O=c1n(Cc2nc3ccccc3n2CCCCO)c2cnccc2n1C1CC1` [Ref2, reference compound], the EC50 in data set [1] (setting [6]) was determined as 3.98 nM.
